Reference: article PMC9781983, “Identification of Darunavir Derivatives for Inhibition of SARS-CoV-2 3CL^pro” (International Journal of Molecular Sciences, 2022)
Where two headings read alike, the source gives them in different places.

Tests used:
SARS-CoV-2 3CL^pro [1] = molecular target: T1, SARS-CoV-2 3CL^pro (Severe acute respiratory syndrome coronavirus 2, UniProt P0DTD1); assay: Bio-layer interferometry (BLI) kinetic binding assay; settings: for Binding to SARS-CoV-2 3CL^pro: 6.25 to 100 or 200 µM; for koff: read-out: Kdis
Cathepsin L = Cathepsin L (Homo sapiens, UniProt P07711); assay: Counter screen against Cathepsin L; format: biochemical; settings: dose-response, Figure S1
SARS-CoV-2 3CL^pro [2] = molecular target: T1, SARS-CoV-2 3CL^pro; assay: biochemical; format: biochemical; settings: for IC50: FRET dose-response, 100 nM 3CL^pro pre-incubated 30 min at 30 °C, 10 µM substrate, read-out: IC50 against SARS-CoV-2 3CL^pro
SARS-CoV-2 3CL^pro [3] = molecular target: T1, SARS-CoV-2 3CL^pro; assay: cell-based
in vitro = settings: human
[4] = molecular target: Norovirus RNA-dependent RNA polymerase (RdRp) (Norovirus, UniProt Q83883); assay: BLI binding assay, non-specific binding control; settings: Figure S2
rats = settings: taken orally, ref [7],[34]; cited from earlier work
[5] = single concentration of 20 μM, normalized to DMSO control

Sequence of Cathepsin L (P07711 114-333): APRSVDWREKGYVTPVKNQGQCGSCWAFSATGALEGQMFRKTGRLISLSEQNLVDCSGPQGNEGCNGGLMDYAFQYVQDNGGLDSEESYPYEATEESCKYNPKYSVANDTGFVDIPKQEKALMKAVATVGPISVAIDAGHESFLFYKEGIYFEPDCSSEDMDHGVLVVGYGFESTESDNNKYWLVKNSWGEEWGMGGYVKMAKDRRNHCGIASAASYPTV
Sequence of Norovirus RNA-dependent RNA polymerase (RdRp) (Q83883 1282-1789): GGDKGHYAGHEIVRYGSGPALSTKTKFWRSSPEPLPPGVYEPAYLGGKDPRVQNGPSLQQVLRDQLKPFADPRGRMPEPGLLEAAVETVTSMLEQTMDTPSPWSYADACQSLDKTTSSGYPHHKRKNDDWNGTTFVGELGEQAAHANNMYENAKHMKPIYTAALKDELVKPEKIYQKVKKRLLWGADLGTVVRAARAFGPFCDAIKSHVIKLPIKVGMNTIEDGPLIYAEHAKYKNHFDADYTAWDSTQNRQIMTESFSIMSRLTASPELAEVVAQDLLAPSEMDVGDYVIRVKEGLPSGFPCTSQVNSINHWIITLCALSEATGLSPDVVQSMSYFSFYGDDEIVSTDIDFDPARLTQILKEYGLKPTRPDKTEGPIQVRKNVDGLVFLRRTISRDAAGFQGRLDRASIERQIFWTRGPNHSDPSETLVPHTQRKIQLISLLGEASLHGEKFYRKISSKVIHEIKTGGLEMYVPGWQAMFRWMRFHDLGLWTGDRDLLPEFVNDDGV

COc1ccc(S(=O)(=O)N(CC(C)O)CC(O)C(Cc2ccccc2)NC(=O)c2ccc(O)c(O)c2)cc1 (stereo not drawn) [29#]
Binding to SARS-CoV-2 3CL^pro (SARS-CoV-2 3CL^pro [1]; BLI): dose-dependent manner | Kd (SARS-CoV-2 3CL^pro [1]; ForteBio Octet System): 52.7 µM | kon (SARS-CoV-2 3CL^pro [1]; ForteBio Octet System): 374 M⁻¹ s⁻¹ | koff (SARS-CoV-2 3CL^pro [1]; ForteBio Octet System): 0.0197 s⁻¹ | Inhibitory effect against Cathepsin L (Cathepsin L): very limited inhibitory effect | Hill slope (SARS-CoV-2 3CL^pro [2]; FRET dose-response curve): 1.78±0.32 | IC50 (SARS-CoV-2 3CL^pro [2]): 6.3 µM | Inhibition of 3CL^pro activity in primary screening (SARS-CoV-2 3CL^pro [2]; [5]): significant inhibition | EC50 (SARS-CoV-2 3CL^pro [3]): 8.9 µM | CC50 (in vitro): 24.8 µM | KD with Norovirus RdRp [4]: either a large KD value or a not-detected KD value

COc1ccc(S(=O)(=O)N(CC(C)O)CC(O)C(Cc2ccccc2)NC(=O)C2(O)CC(O)C(O)C(OC(=O)C=Cc3ccc(O)c(O)c3)C2)cc1 (stereo not drawn) [50#]
Kd (SARS-CoV-2 3CL^pro [1]; BLI): 62 µM | Binding to SARS-CoV-2 3CL^pro (SARS-CoV-2 3CL^pro [1]; BLI): dose-dependent manner | Kd (SARS-CoV-2 3CL^pro [1]; ForteBio Octet System): 62.1 µM | kon (SARS-CoV-2 3CL^pro [1]; ForteBio Octet System): 455 M⁻¹ s⁻¹ | koff (SARS-CoV-2 3CL^pro [1]; ForteBio Octet System): 0.0282 s⁻¹ | Inhibitory effect against Cathepsin L (Cathepsin L): very limited inhibitory effect | Hill slope (SARS-CoV-2 3CL^pro [2]; FRET dose-response curve): 1.93±0.30 | IC50 (SARS-CoV-2 3CL^pro [2]): 3.5 µM | Inhibition of 3CL^pro activity in primary screening (SARS-CoV-2 3CL^pro [2]; [5]): significant inhibition | EC50 (SARS-CoV-2 3CL^pro [3]): 13.5 µM | CC50 (in vitro): 49 µM | KD with Norovirus RdRp [4]: either a large KD value or a not-detected KD value

CC(C)CN(C[C@@H](O)[C@H](Cc1ccccc1)NC(=O)O[C@H]1CO[C@H]2OCC[C@H]21)S(=O)(=O)c1ccc(N)cc1 [Darunavir]
Inhibition of 3CL^pro activity in primary screening (SARS-CoV-2 3CL^pro [2]; [5]): no inhibitory activity

O=c1c2ccccc2[se]n1-c1ccccc1 [Ebselen, ebselen, reference compound]
Hill slope (SARS-CoV-2 3CL^pro [2]): 1.91±0.22 | Inhibition of 3CL^pro activity in primary screening (SARS-CoV-2 3CL^pro [2]): strongly inhibit | median lethal dose (rats): > 4600 mg/kg
